Assay results from patent publication US8987250B2 (Gilead Sciences, Inc., priority 2012, dated 2015).
Read-outs that look alike come from different tables or passages of the source.

Key:
human liver microsomes = assay: Test B: Metabolic Stability Assay with Human Liver Microsomes; assay type: in vitro ADME; settings: 1 uM compound, 1 mg/mL human liver microsomal proteins, 37° C., 0-60 minutes; half-life class
Text: Test B: Metabolic Stability Assay with Human Liver Microsomes
Effective viral suppression in the HIV infected patient requires that the antiviral drug persists in the patient's body at concentrations exceeding the minimum concentration required to inhibit viral proliferation. One of the factors controlling the drug levels after dosing is metabolic conversion. The liver is one site of drug metabolism. Approximately 60% of marketed drugs are cleared by hepatic metabolism (McGinnity D F et al. (2004) Drug Metab Dispos 32; 1247-1253). Liver microsomes are subcellular fractions which contain membrane bound drug metabolising enzymes. Human liver microsomes provide a convenient and concentrated source of the key liver metabolic enzymes (e.g., cytochromes P450, UDP-glucuronosyltransferases, and many others) and can be used to predict the metabolic stability of drug candidates (e.g., agents).
Cluster tubes containing 500 uL of 1 uM compound with 1 mg/mL human liver microsomal proteins (BD Biosciences, BD452117)/50 mM K-phosphate buffer pH7.4/NADPH regenerating system/and UDP-glucuronosyltransferase cofactors, were incubated on the Precision-2000 workstation at 37° C. for 0, 10, 25, 60 minutes. The reactions were quenched with 100 uL of 0.2% formic acid in 90% ACN; containing 50 nM of an internal standard. The samples were analyzed on LC/MS/MS instrument (Q-Trap). Metabolic stabilities in microsomal fractions and hepatocytes were determined by measuring the rate of disappearance of the compound. Data (% of parent remaining) were plotted on a semi logarithmic scale and fitted using an exponential fit.

HIV-IIIb = assay: Test A: Antiviral Assay in MT4 Cells; assay type: cell-based; settings: MT-4 cells infected with HIV-IIIb, 5 days of incubation, CellTiter-Glo, read-out: EC50
Summary of the method: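 Read-out: CellTiter-Glo chemiluminescence after 5-day incubation at 37 °C. Compounds tested as 3-fold serial dilutions (10 concentrations, quadruplicate) in RPMI 1640 with 10% FBS, on MT-4 cells pre-infected at 37 °C with HIV-IIIb at 0.004 m.o.i.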

[1] = Human immunodeficiency virus 1, IIIB, MT4, 120 h, Table 1
[2] = Human immunodeficiency virus 1, IIIB, MT4, 120 h, Table 2

## Cc1cc2nc(-c3cccc(-c4ccc5c(cnn5C)c4)c3)sc2c(-c2ccc3c4c(ccnc24)CCO3)c1[C@H](OC(C)(C)C)C(=O)O (atropisomer, axis not shown) [Compound 163]
Human liver microsomes
  Human Microsomal stability: C (a human microsomal stability half-life of less than 150 minutes)
HIV-IIIb; Table 1
  EC50: 18 nM

## COc1cncc(-c2cccc(-c3nc4cc(C)c([C@H](OC(C)(C)C)C(=O)O)c(-c5ccc(Cl)cc5)c4s3)c2)c1 [Compound 104, (S)-2-tert-butoxy-2-(7-(4-chlorophenyl)-2-(3-(5-methoxypyridin-3-yl)phenyl)-5-methylbenzo[d]thiazol-6-yl)acetic acid]
Human liver microsomes
  Human Microsomal stability: C (a human microsomal stability half-life of less than 150 minutes)
HIV-IIIb; [1]
  EC50: 42 nM

## Cc1cc2nc(-c3cccc(-c4ccnc(Cl)c4)c3)sc2c(-c2ccc(Cl)cc2)c1[C@H](OC(C)(C)C)C(=O)O [Compound 107, (S)-2-tert-butoxy-2-(7-(4-chlorophenyl)-2-(3-(2-chloropyridin-4-yl)phenyl)-5-methylbenzo[d]thiazol-6-yl)acetic acid]
Human liver microsomes
  Human Microsomal stability: C (a human microsomal stability half-life of less than 150 minutes)
HIV-IIIb; [1]
  EC50: 46 nM

## Cc1cc2nc(-c3cccc(-c4ccc5c(cnn5C)c4)c3)sc2c(-c2ccc(Cl)cc2)c1[C@H](OC(C)(C)C)C(=O)O [Compound 109, (S)-2-tert-butoxy-2-(7-(4-chlorophenyl)-5-methyl-2-(3-(1-methyl-1H-indazol-5-yl)phenyl)benzo[d]thiazol-6-yl)acetic acid]
Human liver microsomes
  Human Microsomal stability: B (a human microsomal stability half-life of less than 300 minutes but greater than or equal to 150 minutes)
HIV-IIIb; [1]
  EC50: 82 nM

## Cc1cc2nc(-c3ccnc(-c4ccc5c(cnn5C)c4)c3)sc2c(-c2ccc(Cl)cc2)c1[C@H](OC(C)(C)C)C(=O)O [Compound 113a, (S)-2-tert-butoxy-2-(7-(4-chlorophenyl)-5-methyl-2-(2-(1-methyl-1H-indazol-5-yl)pyridin-4-yl)benzo[d]thiazol-6-yl)acetic acid]
Human liver microsomes
  Human Microsomal stability: A (a human microsomal stability half-life of greater than or equal to 300 minutes)
HIV-IIIb; [1]
  EC50: 16 nM

## Cc1cc2nc(-c3cccc(-c4cnn(C(C)(C)C)c4)c3)sc2c(-c2ccc(Cl)cc2)c1[C@H](OC(C)(C)C)C(=O)O [Compound 141]
Human liver microsomes
  Human Microsomal stability: B (a human microsomal stability half-life of less than 300 minutes but greater than or equal to 150 minutes)
HIV-IIIb; [1]
  EC50: 77 nM

## COc1cc(-c2cccc(-c3nc4cc(C)c([C@H](OC(C)(C)C)C(=O)O)c(-c5ccc(Cl)cc5)c4s3)c2)ccn1 [Compound 152]
Human liver microsomes
  Human Microsomal stability: C (a human microsomal stability half-life of less than 150 minutes)
HIV-IIIb; [1]
  EC50: 46 nM

## Cc1cc2nc(-c3cccc(-c4cnn(C)c4)c3)sc2c(-c2ccc(Cl)cc2)c1[C@H](OC(C)(C)C)C(=O)O [Compound 158]
Human liver microsomes
  Human Microsomal stability: C (a human microsomal stability half-life of less than 150 minutes)
HIV-IIIb; [1]
  EC50: 17 nM

## Cc1cc2nc(-c3ccnc(-n4ccc5cnccc5c4=O)c3)sc2c(-c2ccc(Cl)cc2)c1[C@H](OC(C)(C)C)C(=O)O [Compound 186, (S)-2-tert-butoxy-2-(7-(4-chlorophenyl)-5-methyl-2-(2-(1-oxo-2,6-naphthyridin-2(1H)-yl)pyridin-4-yl)benzo[d]thiazol-6-yl)acetic acid]
Human liver microsomes
  Human Microsomal stability: C (a human microsomal stability half-life of less than 150 minutes)
HIV-IIIb; [2]
  EC50: 4 nM

## Cc1cc2nc(-c3ccnc(N4CCN(C(C)C)CC4)n3)sc2c(-c2ccc(Cl)cc2)c1[C@H](OC(C)(C)C)C(=O)O [Compound 202, (S)-2-tert-butoxy-2-(7-(4-chlorophenyl)-2-(2-(4-isopropylpiperazin-1-yl)pyrimidin-4-yl)-5-methylbenzo[d]thiazol-6-yl)acetic acid]
Human liver microsomes
  Human Microsomal stability: A (a human microsomal stability half-life of greater than or equal to 300 minutes)
HIV-IIIb; [2]
  EC50: 2 nM

## Cc1cc2nc(-c3ccc4c(N(C)C)nn(C)c4c3)sc2c(-c2ccc(Cl)cc2)c1[C@H](OC(C)(C)C)C(=O)O [Compound 206, (S)-2-tert-butoxy-2-(7-(4-chlorophenyl)-2-(3-(dimethylamino)-1-methyl-1H-indazol-6-yl)-5-methylbenzo[d]thiazol-6-yl)acetic acid]
Human liver microsomes
  Human Microsomal stability: C (a human microsomal stability half-life of less than 150 minutes)
HIV-IIIb; [2]
  EC50: 24 nM

## Cc1cc2nc(-c3ccc4c(c3)c(-c3cccnc3)nn4C)sc2c(-c2ccc(Cl)cc2)c1[C@H](OC(C)(C)C)C(=O)O [Compound 212, (S)-2-tert-butoxy-2-(7-(4-chlorophenyl)-5-methyl-2-(1-methyl-3-(pyridin-3-yl)-1H-indazol-5-yl)benzo[d]thiazol-6-yl)acetic acid]
Human liver microsomes
  Human Microsomal stability: A (a human microsomal stability half-life of greater than or equal to 300 minutes)
HIV-IIIb; [2]
  EC50: 6 nM
HIV-IIIb; Table 1
  EC50: 726 nM

## Cc1cc2nc(-c3ccc4c(c3)ncn4Cc3ccccc3)sc2c(-c2ccc(Cl)cc2)c1[C@H](OC(C)(C)C)C(=O)O [Compound 285, (S)-2-(2-(1-benzyl-1H-benzo[d]imidazol-5-yl)-7-(4-chlorophenyl)-5-methylbenzo[d]thiazol-6-yl)-2-tert-butoxyacetic acid]
Human liver microsomes
  Human Microsomal stability: A (a human microsomal stability half-life of greater than or equal to 300 minutes)

## Cc1cc2nc(-c3ccc4c(n3)c(-c3cccnc3)nn4C)sc2c(-c2ccc(Cl)cc2)c1[C@H](OC(C)(C)C)C(=O)O [Compound 496, (S)-2-tert-butoxy-2-(7-(4-chlorophenyl)-5-methyl-2-(1-methyl-3-(pyridin-3-yl)-1H-pyrazolo[4,3-b]pyridin-5-yl)benzo[d]thiazol-6-yl)acetic acid]
HIV-IIIb; [2]
  EC50: 5 nM

## Cc1cc2nc(-c3ccc4c(c3)c(-c3cncnc3)nn4C)sc2c(-c2ccc(Cl)cc2)c1[C@H](OC(C)(C)C)C(=O)O [Compound 497, (S)-2-tert-butoxy-2-(7-(4-chlorophenyl)-5-methyl-2-(1-methyl-3-(pyrimidin-5-yl)-1H-indazol-5-yl)benzo[d]thiazol-6-yl)acetic acid]
HIV-IIIb; [2]
  EC50: 4 nM

## Cc1cc2nc(-c3ccnc(-c4cnc5[nH]cc(C)c5c4)c3)sc2c(-c2ccc(Cl)cc2)c1[C@H](OC(C)(C)C)C(=O)O [Compound 498, (S)-2-tert-butoxy-2-(7-(4-chlorophenyl)-5-methyl-2-(2-(3-methyl-1H-pyrrolo[2,3-b]pyridin-5-yl)pyridin-4-yl)benzo[d]thiazol-6-yl)acetic acid]
HIV-IIIb; [2]
  EC50: 34 nM

## CC(=O)N(C)c1ccc(-c2cc(-c3nc4cc(C)c([C@H](OC(C)(C)C)C(=O)O)c(-c5ccc(Cl)cc5)c4s3)ccn2)cc1 [Compound 499, (S)-2-(tert-butoxy)-2-(7-(4-chlorophenyl)-5-methyl-2-(2-(4-(N-methylacetamido)phenyl)pyridin-4-yl)benzo[d]thiazol-6-yl)acetic acid]
HIV-IIIb; [2]
  EC50: 12 nM

## (S)-2-tert-butoxy-2-(7-(4-chlorophenyl)-2-(3-(4,4-dimethylpiperazin-1-ium-1-yl)-1-methyl-1H-indazol-5-yl)-5-methylbenzo[d]thiazol-6-yl)acetate [Compound 494]
HIV-IIIb; Table 2
  EC50: 2880 nM
